Assay results as given in ChEMBL document CHEMBL3885861, “Open TG-GATES”.

Organism: Rattus norvegicus
Experiment: Open TG-GATES - Regimen: Single
Assay type: toxicity, organism-based, Sprague-Dawley
Set-up: regimen Single, gender Male, age 6 weeks
Details: in vivo, po, 100 mg/kg, route gavage, dose level Low; for APTT / Bas / Eos / Fbg / Hb / Ht / Lym / MCH / MCHC / MCV / Mono / Neu / PT / Plat / RBC / Ret / WBC: tissue Blood; for KIDNEY_L / KIDNEY_R / KIDNEY_TOTAL: tissue Kidney; for LIVER: tissue Liver; for A/G / ALP / ALT / AST / BUN / CRE / Ca / Cl / DBIL / GLC / IP / K / LDH / Na / PL / RALB / TBIL / TC / TG / TP / gamma-GTP: tissue Plasma

SMILES: CCc1cc(C(N)=S)ccn1 [ETHIONAMIDE]
- TERMINAL_BW (3 h): 224.2 g
- APTT (3 h): 16.6 s
- Bas (3 h): 0%
- Eos (3 h): 1%
- Fbg (3 h): 211.2 mg/dL
- Hb (3 h): 13.8 g/dL
- Ht (3 h): 40.6%
- Lym (3 h): 73.6%
- MCH (3 h): 21.8 pg
- MCHC (3 h): 34%
- MCV (3 h): 64 fL
- Mono (3 h): 8.4%
- Neu (3 h): 17.4%
- PT (3 h): 12.4 s
- Plat (3 h): 119.3 x10_4/uL
- RBC (3 h): 635.8 x10_4/ul
- Ret (3 h): 7.1%
- WBC (3 h): 90.5 x10_2/uL
- KIDNEY_L (3 h): 1 g
- KIDNEY_R (3 h): 1 g
- KIDNEY_TOTAL (3 h): 1.9 g
- LIVER (3 h): 10.7 g
- A/G (3 h): 1.9
- ALP (3 h): 802.2 IU/L
- ALT (3 h): 36 IU/L
- AST (3 h): 68.6 IU/L
- BUN (3 h): 15 mg/dL
- CRE (3 h): 0.7 mg/dL
- Ca (3 h): 11 mg/dL
- Cl (3 h): 103 meq/L
- DBIL (3 h): 0.012 mg/dL
- GLC (3 h): 181.6 mg/dL
- IP (3 h): 9.2 mg/dL
- K (3 h): 4.4 meq/L
- LDH (3 h): 109 IU/L
- Na (3 h): 140.6 meq/L
- PL (3 h): 128.4 mg/dL
- RALB (3 h): 3.6 g/dL
- TBIL (3 h): 0.4 mg/dL
- TC (3 h): 73 mg/dL
- TG (3 h): 58 mg/dL
- TP (3 h): 5.5 g/dL
- gamma-GTP (3 h): 1.6 IU/L
- TERMINAL_BW (6 h): 229.4 g
- APTT (6 h): 17.1 s
- Bas (6 h): 0%
- Eos (6 h): 0.8%
- Fbg (6 h): 208.8 mg/dL
- Hb (6 h): 14.2 g/dL
- Ht (6 h): 42.1%
- Lym (6 h): 77.6%
- MCH (6 h): 22.1 pg
- MCHC (6 h): 33.7%
- MCV (6 h): 65.7 fL
- Mono (6 h): 8%
- Neu (6 h): 14.2%
- PT (6 h): 13.4 s
- Plat (6 h): 114.8 x10_4/uL
- RBC (6 h): 640.6 x10_4/ul
- Ret (6 h): 7.5%
- WBC (6 h): 84 x10_2/uL
- KIDNEY_L (6 h): 1 g
- KIDNEY_R (6 h): 1 g
- KIDNEY_TOTAL (6 h): 2 g
- LIVER (6 h): 10.8 g
- A/G (6 h): 1.8
- ALP (6 h): 908.4 IU/L
- ALT (6 h): 31.6 IU/L
- AST (6 h): 77.4 IU/L
- BUN (6 h): 15.6 mg/dL
- CRE (6 h): 0.5 mg/dL
- Ca (6 h): 11 mg/dL
- Cl (6 h): 105.4 meq/L
- DBIL (6 h): 0.004 mg/dL
- GLC (6 h): 187.4 mg/dL
- IP (6 h): 9.8 mg/dL
- K (6 h): 4.5 meq/L
- LDH (6 h): 123.4 IU/L
- Na (6 h): 140.4 meq/L
- PL (6 h): 126 mg/dL
- RALB (6 h): 3.5 g/dL
- TBIL (6 h): 0.4 mg/dL
- TC (6 h): 69.6 mg/dL
- TG (6 h): 54.4 mg/dL
- TP (6 h): 5.5 g/dL
- gamma-GTP (6 h): 1 IU/L
- TERMINAL_BW (9 h): 222.6 g
- APTT (9 h): 18.1 s
- Bas (9 h): 0%
- Eos (9 h): 1.4%
- Fbg (9 h): 210.2 mg/dL
- Hb (9 h): 14.2 g/dL
- Ht (9 h): 42.2%
- Lym (9 h): 70%
- MCH (9 h): 21.7 pg
- MCHC (9 h): 33.7%
- MCV (9 h): 64.4 fL
- Mono (9 h): 8.6%
- Neu (9 h): 20%
- PT (9 h): 14.1 s
- Plat (9 h): 116.8 x10_4/uL
- RBC (9 h): 655.2 x10_4/ul
- Ret (9 h): 8.3%
- WBC (9 h): 79.2 x10_2/uL
- KIDNEY_L (9 h): 1 g
- KIDNEY_R (9 h): 1 g
- KIDNEY_TOTAL (9 h): 2 g
- LIVER (9 h): 9.8 g
- A/G (9 h): 2
- ALP (9 h): 756.6 IU/L
- ALT (9 h): 33.8 IU/L
- AST (9 h): 73.4 IU/L
- BUN (9 h): 15 mg/dL
- CRE (9 h): 0.6 mg/dL
- Ca (9 h): 10.7 mg/dL
- Cl (9 h): 105.2 meq/L
- DBIL (9 h): 0.018 mg/dL
- GLC (9 h): 205.4 mg/dL
- IP (9 h): 10.7 mg/dL
- K (9 h): 4.5 meq/L
- LDH (9 h): 95.6 IU/L
- Na (9 h): 142 meq/L
- PL (9 h): 100.4 mg/dL
- RALB (9 h): 3.5 g/dL
- TBIL (9 h): 0.4 mg/dL
- TC (9 h): 53.4 mg/dL
- TG (9 h): 28.4 mg/dL
- TP (9 h): 5.3 g/dL
- gamma-GTP (9 h): 1.4 IU/L
- TERMINAL_BW (24 h): 231 g
- APTT (24 h): 16.3 s
- Bas (24 h): 0%
- Eos (24 h): 1.2%
- Fbg (24 h): 214.8 mg/dL
- Hb (24 h): 14.3 g/dL
- Ht (24 h): 42.3%
- Lym (24 h): 62.4%
- MCH (24 h): 21.6 pg
- MCHC (24 h): 33.8%
- MCV (24 h): 63.8 fL
- Mono (24 h): 12.8%
- Neu (24 h): 23.8%
- PT (24 h): 12.2 s
- Plat (24 h): 117.2 x10_4/uL
- RBC (24 h): 663 x10_4/ul
- Ret (24 h): 8%
- WBC (24 h): 110 x10_2/uL
- KIDNEY_L (24 h): 1.1 g
- KIDNEY_R (24 h): 1.1 g
- KIDNEY_TOTAL (24 h): 2.1 g
- LIVER (24 h): 11.7 g
- A/G (24 h): 1.9
- ALP (24 h): 884.8 IU/L
- ALT (24 h): 38.6 IU/L
- AST (24 h): 80.4 IU/L
- BUN (24 h): 16.4 mg/dL
- CRE (24 h): 0.6 mg/dL
- Ca (24 h): 10.9 mg/dL
- Cl (24 h): 104.6 meq/L
- DBIL (24 h): 0.026 mg/dL
- GLC (24 h): 193.2 mg/dL
- IP (24 h): 7.8 mg/dL
- K (24 h): 4.6 meq/L
- LDH (24 h): 90.4 IU/L
- Na (24 h): 141.4 meq/L
- PL (24 h): 136 mg/dL
- RALB (24 h): 3.6 g/dL
- TBIL (24 h): 0.3 mg/dL
- TC (24 h): 67.6 mg/dL
- TG (24 h): 103.8 mg/dL
- TP (24 h): 5.5 g/dL
- gamma-GTP (24 h): 1.8 IU/L
